We go through one compound from ChEMBL document CHEMBL1201862, “PubChem BioAssay data set” (2004).

The source made the active and inactive calls. No rule for the calls is given here.

The assay can be described thus: T. cruzi growth inhibition in host cells, dose response, cell-based, plate reader, dry powder, set 2 (AID 652275). Format: functional.

As a reminder, the AC50 is the concentration giving half of the maximal activity seen. Consider `CC(C)N1C[C@@H](CN(C)Cc2ccc(Cl)cc2)Oc2c(C(=O)Nc3ccncc3)cccc2C1=O`, for which the AC50 is 790 pM (active).
